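In this assay, cells in 96-well plates receive the compound at five concentrations for 48 hours. Endpoints are linearly interpolated between the surrounding concentrations. GI50 is the concentration that inhibits growth by half.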 Active and inactive are the calls of the source. Cut-off read from the data, not from the text of the source: active = GI50 up to about 1.1 µM and inactive = higher.
Experiments:
Test in all cases: NCI tumour cell line growth inhibition, 48 h
U-251 = tested on: U-251
NCI-H23 = tested on: NCI-H23
EKVX = tested on: EKVX
RXF 393 = tested on: RXF 393
CCRF-CEM = tested on: CCRF-CEM
HOP-92 = tested on: HOP-92
UACC-257 = tested on: UACC-257
Malme-3M = tested on: Malme-3M
TK-10 = tested on: TK-10
M19-MEL = tested on: M19-MEL
SK-MEL-28 = tested on: SK-MEL-28
LXFL 529 = tested on: LXFL 529
HOP-18 = tested on: HOP-18
786-0 = tested on: 786-0
A549 = tested on: A549
SK-MEL-5 = tested on: SK-MEL-5
M14 = tested on: M14
SNB-19 = tested on: SNB-19
HCT-15 = tested on: HCT-15
XF498 = tested on: XF498
UO-31 = tested on: UO-31
NCI-H522 = tested on: NCI-H522
SN12C = tested on: SN12C
OVCAR-3 = tested on: OVCAR-3
SF-539 = tested on: SF-539
SW-620 = tested on: SW-620
SR = tested on: SR
IGROV-1 = tested on: IGROV-1
COLO 205 = tested on: COLO 205
NCI-H226 = tested on: NCI-H226
KM12 = tested on: KM12
K562 = tested on: K562
HL-60 = tested on: HL-60
SK-MEL-2 = tested on: SK-MEL-2
HCC 2998 = tested on: HCC 2998
DMS-273 = tested on: DMS-273
ACHN = tested on: ACHN
SF-268 = tested on: SF-268
OVCAR-5 = tested on: OVCAR-5
SF-295 = tested on: SF-295
HT-29 = tested on: HT-29
MOLT-4 = tested on: MOLT-4
DMS-114 = tested on: DMS-114
OVCAR-8 = tested on: OVCAR-8
DLD-1 = tested on: DLD-1
SK-OV-3 = tested on: SK-OV-3
RPMI-8226 = tested on: RPMI-8226
NCI-H460 = tested on: NCI-H460
T47D = tested on: T47D
CAKI-1 = tested on: CAKI-1
MDA-N = tested on: MDA-N
OVCAR-4 = tested on: OVCAR-4
MCF7 = tested on: MCF7
MDA-MB-435 = tested on: MDA-MB-435
SNB-75 = tested on: SNB-75
DU-145 = tested on: DU-145
Hs-578T = tested on: Hs-578T
HCT-116 = tested on: HCT-116
HOP-62 = tested on: HOP-62
NCI/ADR-RES = tested on: NCI/ADR-RES
SNB-78 = tested on: SNB-78
MDA-MB-231 = tested on: MDA-MB-231
BT-549 = tested on: BT-549

Structure (SMILES): O=C(O)C1=C(O)C(C(=O)O)C23CCCCCCCCCCC12C(C(=O)O)C(O)=C3C(=O)O (centres undefined)
- GI50 (U-251): > 100 µM (inactive)
- GI50 (NCI-H23): > 100 µM (inactive)
- GI50 (EKVX): > 100 µM (inactive)
- GI50 (RXF 393): > 100 µM (inactive)
- GI50 (CCRF-CEM): > 100 µM (inactive)
- GI50 (HOP-92): > 100 µM (inactive)
- GI50 (UACC-257): > 100 µM (inactive)
- GI50 (Malme-3M): > 100 µM (inactive)
- GI50 (TK-10): > 100 µM (inactive)
- GI50 (M19-MEL): > 100 µM (inactive)
- GI50 (SK-MEL-28): > 100 µM (inactive)
- GI50 (LXFL 529): > 100 µM (inactive)
- GI50 (HOP-18): > 100 µM (inactive)
- GI50 (786-0): > 100 µM (inactive)
- GI50 (A549): > 100 µM (inactive)
- GI50 (SK-MEL-5): > 100 µM (inactive)
- GI50 (M14): > 100 µM (inactive)
- GI50 (SNB-19): > 100 µM (inactive)
- GI50 (HCT-15): > 100 µM
- GI50 (XF498): > 100 µM (inactive)
- GI50 (UO-31): > 100 µM (inactive)
- GI50 (NCI-H522): > 100 µM (inactive)
- GI50 (SN12C): > 100 µM (inactive)
- GI50 (OVCAR-3): > 100 µM (inactive)
- GI50 (SF-539): > 100 µM (inactive)
- GI50 (SW-620): > 100 µM (inactive)
- GI50 (SR): > 100 µM (inactive)
- GI50 (IGROV-1): > 100 µM (inactive)
- GI50 (COLO 205): > 100 µM (inactive)
- GI50 (NCI-H226): > 100 µM (inactive)
- GI50 (KM12): > 100 µM (inactive)
- GI50 (K562): > 100 µM (inactive)
- GI50 (HL-60): > 100 µM (inactive)
- GI50 (SK-MEL-2): > 100 µM (inactive)
- GI50 (HCC 2998): > 100 µM (inactive)
- GI50 (DMS-273): > 100 µM (inactive)
- GI50 (ACHN): > 100 µM (inactive)
- GI50 (SF-268): > 100 µM (inactive)
- GI50 (OVCAR-5): > 100 µM (inactive)
- GI50 (SF-295): > 100 µM (inactive)
- GI50 (HT-29): > 100 µM (inactive)
- GI50 (MOLT-4): > 100 µM (inactive)
- GI50 (DMS-114): > 100 µM (inactive)
- GI50 (OVCAR-8): > 100 µM (inactive)
- GI50 (DLD-1): > 100 µM (inactive)
- GI50 (SK-OV-3): > 100 µM (inactive)
- GI50 (RPMI-8226): > 100 µM (inactive)
- GI50 (NCI-H460): > 100 µM (inactive)

Structure (SMILES): c1ccc(SCCP(CCP(c2ccccc2)c2ccccc2)c2ccccc2)cc1 (centres undefined)
- GI50 (T47D): 6.58 µM (inactive)
- GI50 (U-251): 1.89 µM (inactive)
- GI50 (NCI-H23): 2.95 µM (inactive)
- GI50 (CAKI-1): 7.26 µM (inactive)
- GI50 (EKVX): 9.02 µM (inactive)
- GI50 (MDA-N): 7.52 µM (inactive)
- GI50 (RXF 393): 3.9 µM (inactive)
- GI50 (OVCAR-4): 6.14 µM (inactive)
- GI50 (CCRF-CEM): 8.3 µM (inactive)
- GI50 (HOP-92): 2.29 µM (inactive)
- GI50 (MCF7): 14.1 µM (inactive)
- GI50 (UACC-257): 11.7 µM (inactive)
- GI50 (Malme-3M): 11.5 µM (inactive)
- GI50 (TK-10): 12.1 µM (inactive)
- GI50 (MDA-MB-435): 11.5 µM (inactive)
- GI50 (SNB-75): 0.948 µM (active)
- GI50 (M19-MEL): 10.7 µM (inactive)
- GI50 (SK-MEL-28): 21.3 µM (inactive)
- GI50 (LXFL 529): 3.33 µM (inactive)
- GI50 (DU-145): 3.41 µM (inactive)
- GI50 (Hs-578T): 4.61 µM (inactive)
- GI50 (HOP-18): 2.16 µM (inactive)
- GI50 (786-0): 4.57 µM (inactive)
- GI50 (A549): 6.17 µM (inactive)
- GI50 (SK-MEL-5): 14 µM (inactive)
- GI50 (M14): 10.5 µM (inactive)
- GI50 (SNB-19): 2.95 µM (inactive)
- GI50 (HCT-15): 17.7 µM
- GI50 (HCT-116): 1.89 µM (inactive)
- GI50 (HOP-62): 8.2 µM (inactive)
- GI50 (XF498): 2.47 µM (inactive)
- GI50 (UO-31): 7.73 µM (inactive)
- GI50 (SN12C): 4.09 µM (inactive)
- GI50 (OVCAR-3): 3.88 µM (inactive)
- GI50 (SF-539): 34.9 µM (inactive)
- GI50 (SW-620): 13.3 µM (inactive)
- GI50 (IGROV-1): 6.34 µM (inactive)
- GI50 (COLO 205): 8.77 µM (inactive)
- GI50 (NCI-H226): 23.1 µM (inactive)
- GI50 (KM12): 2.1 µM (inactive)
- GI50 (K562): 4.21 µM (inactive)
- GI50 (HL-60): 2.09 µM (inactive)
- GI50 (NCI/ADR-RES): 34.4 µM (inactive)
- GI50 (SK-MEL-2): 3.07 µM (inactive)
- GI50 (HCC 2998): 12.2 µM (inactive)
- GI50 (DMS-273): 1.73 µM (inactive)
- GI50 (ACHN): 5.02 µM (inactive)
- GI50 (SF-268): > 25.5 µM (inactive)
- GI50 (OVCAR-5): 46.6 µM (inactive)
- GI50 (SF-295): 5.46 µM (inactive)
- GI50 (HT-29): 3.47 µM (inactive)
- GI50 (MOLT-4): 11.4 µM (inactive)
- GI50 (DMS-114): 10.2 µM (inactive)
- GI50 (OVCAR-8): 3.06 µM (inactive)
- GI50 (DLD-1): 22 µM (inactive)
- GI50 (SNB-78): 2.22 µM (inactive)
- GI50 (SK-OV-3): 6.61 µM (inactive)
- GI50 (RPMI-8226): 3.14 µM (inactive)
- GI50 (MDA-MB-231): 6.34 µM (inactive)
- GI50 (BT-549): 6.81 µM (inactive)
- GI50 (NCI-H460): 2.84 µM (inactive)

— ChEMBL document CHEMBL1201862, “PubChem BioAssay data set” (2004)
